Test results taken from paper PMC9516332 (Frontiers in Oncology, 2022).
Like-named read-outs stand apart in the source and are kept apart here.

Key:
Assay in all cases: Kinase panel profiling at 1 µmol/L (MSA or IMAP), percentage inhibition
Type in all cases: biochemical
[1] = biological target: T1, panel of 255 wild-type kinases (Homo sapiens, UniProt P54762); settings: read-out: %-inhibition at 1 µmol/L, EPHB1
T1 sequence (P54762 18-984): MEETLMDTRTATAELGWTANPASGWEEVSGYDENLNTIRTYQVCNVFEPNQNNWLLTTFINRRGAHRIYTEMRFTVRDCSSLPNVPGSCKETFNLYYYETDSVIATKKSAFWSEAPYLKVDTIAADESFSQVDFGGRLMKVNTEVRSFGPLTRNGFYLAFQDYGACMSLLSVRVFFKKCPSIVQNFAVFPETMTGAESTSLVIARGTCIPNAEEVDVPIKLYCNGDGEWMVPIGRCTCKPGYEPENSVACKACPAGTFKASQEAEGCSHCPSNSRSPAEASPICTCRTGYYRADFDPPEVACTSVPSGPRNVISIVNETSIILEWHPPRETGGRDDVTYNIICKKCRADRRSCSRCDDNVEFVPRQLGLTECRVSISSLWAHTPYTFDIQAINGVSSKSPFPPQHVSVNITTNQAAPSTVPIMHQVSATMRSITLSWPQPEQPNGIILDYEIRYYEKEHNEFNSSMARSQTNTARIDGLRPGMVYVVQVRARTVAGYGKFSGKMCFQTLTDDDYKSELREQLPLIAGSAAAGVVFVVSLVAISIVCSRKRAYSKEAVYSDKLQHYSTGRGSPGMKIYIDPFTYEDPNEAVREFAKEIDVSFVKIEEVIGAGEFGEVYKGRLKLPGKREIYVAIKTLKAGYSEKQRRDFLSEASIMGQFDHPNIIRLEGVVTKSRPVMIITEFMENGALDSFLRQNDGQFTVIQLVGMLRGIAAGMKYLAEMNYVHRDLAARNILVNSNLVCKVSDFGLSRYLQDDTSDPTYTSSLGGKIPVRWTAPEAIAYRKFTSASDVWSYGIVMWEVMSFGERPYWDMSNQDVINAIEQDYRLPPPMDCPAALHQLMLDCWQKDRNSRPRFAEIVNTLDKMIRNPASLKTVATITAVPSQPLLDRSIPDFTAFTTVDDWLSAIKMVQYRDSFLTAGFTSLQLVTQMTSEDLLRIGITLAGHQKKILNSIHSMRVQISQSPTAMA

[2] = biological target: T2, panel of 255 wild-type kinases (Homo sapiens, UniProt P21709); settings: read-out: %-inhibition at 1 µmol/L, EPHA1
T2 sequence (P21709 26-976): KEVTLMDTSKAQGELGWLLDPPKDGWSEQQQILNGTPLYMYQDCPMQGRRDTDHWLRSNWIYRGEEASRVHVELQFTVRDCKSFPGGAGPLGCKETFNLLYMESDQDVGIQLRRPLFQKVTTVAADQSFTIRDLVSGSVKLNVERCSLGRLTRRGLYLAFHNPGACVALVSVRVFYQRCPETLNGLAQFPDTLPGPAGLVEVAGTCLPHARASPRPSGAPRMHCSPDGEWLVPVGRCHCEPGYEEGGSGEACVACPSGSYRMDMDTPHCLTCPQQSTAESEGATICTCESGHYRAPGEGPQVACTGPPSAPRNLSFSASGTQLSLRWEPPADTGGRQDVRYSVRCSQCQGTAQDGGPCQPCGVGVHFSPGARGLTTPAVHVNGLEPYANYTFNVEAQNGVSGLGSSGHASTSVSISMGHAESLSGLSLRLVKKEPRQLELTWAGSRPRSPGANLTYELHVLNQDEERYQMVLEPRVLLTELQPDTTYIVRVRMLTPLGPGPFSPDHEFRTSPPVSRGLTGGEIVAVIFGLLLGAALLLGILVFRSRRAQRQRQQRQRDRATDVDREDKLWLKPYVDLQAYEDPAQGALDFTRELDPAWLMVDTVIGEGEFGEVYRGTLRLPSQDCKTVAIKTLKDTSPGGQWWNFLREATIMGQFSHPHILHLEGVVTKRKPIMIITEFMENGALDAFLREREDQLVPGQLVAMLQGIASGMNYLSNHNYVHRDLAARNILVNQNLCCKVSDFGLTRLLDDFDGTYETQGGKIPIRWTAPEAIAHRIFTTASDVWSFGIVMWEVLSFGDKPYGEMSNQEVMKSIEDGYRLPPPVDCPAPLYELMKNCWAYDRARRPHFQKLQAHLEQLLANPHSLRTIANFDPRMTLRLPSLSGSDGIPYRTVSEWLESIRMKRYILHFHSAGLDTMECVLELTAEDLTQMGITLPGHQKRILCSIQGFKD

[3] = biological target: T3, panel of 255 wild-type kinases (Homo sapiens, UniProt Q9UQB9); settings: read-out: %-inhibition AurC
T3 sequence (Q9UQB9 1-309): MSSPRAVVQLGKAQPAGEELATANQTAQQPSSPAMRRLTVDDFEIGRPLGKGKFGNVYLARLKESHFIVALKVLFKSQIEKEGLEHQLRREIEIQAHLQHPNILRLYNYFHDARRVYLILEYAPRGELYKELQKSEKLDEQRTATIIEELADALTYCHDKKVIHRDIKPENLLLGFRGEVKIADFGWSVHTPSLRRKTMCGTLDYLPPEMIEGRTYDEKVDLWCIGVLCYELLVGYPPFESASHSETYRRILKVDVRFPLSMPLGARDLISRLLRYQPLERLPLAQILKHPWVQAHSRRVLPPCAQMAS

[4] = kinase EPHB1, 1 µmol/L single concentration
[5] = kinase EPHA1, 1 µmol/L single concentration
[6] = AurC kinase assay, 1 µmol/L single concentration

Row | Compound | inhibition at 1 µM [1, 4] | inhibition at 1 µM [2, 5] | inhibition at 1 µM [3, 6] | inhibition at 1 µM [1] | inhibition at 1 µM [2] | inhibition at 1 µM [3]
1 | CO[C@]1(C(=O)N[C@@H](C)c2ccc(-n3cc(F)cn3)nc2)CC[C@H](c2nc(C)cc(Nc3cc(C)[nH]n3)n2)CC1 [pralsetinib] | 58% | 66% | 36% | – | – | –
2 | COc1cc2ncnc(Nc3ccc(F)c(Cl)c3)c2cc1NC(=O)/C=C/CN1CCCCC1 [dacomitinib] | 45% | 79% | 0.922% | – | – | –
3 | CCn1c(=O)c(-c2cc(NC(=O)Nc3ccccc3)c(F)cc2Br)cc2cnc(NC)cc21 [ripretinib] | 92% | 78% | 0.523% | – | – | –
4 | Cc1nc(NC(=O)N2CCC[C@H]2C(N)=O)sc1-c1ccnc(C(C)(C)C(F)(F)F)c1 [alpelisib] | 8% | -3.59% | 4.51% | – | – | –
5 | C=CC(=O)N1CCC([C@@H]2CCNc3c(C(N)=O)c(-c4ccc(Oc5ccccc5)cc4)nn32)CC1 [zanubrutinib] | -2% | -0.68% | -0.855% | – | – | –
6 | O=C(Nc1cnn2ccc(N3CCC[C@@H]3c3cc(F)ccc3F)nc12)N1CC[C@H](O)C1 [larotrectinib] | -0.531% | -2.54% | -0.0475% | – | – | –
7 | Cc1cc(Nc2ncnc3ccc(NC4=NC(C)(C)CO4)cc23)ccc1Oc1ccn2ncnc2c1 [tucatinib] | 0.25% | 21% | -5.26% | – | – | –
8 | FC(F)(F)c1ccc(CNc2ccc(Cc3c[nH]c4ncc(Cl)cc34)cn2)cn1 [pexidartinib] | 11% | 7% | 68% | – | – | –
9 | Cn1cnc2c(F)c(Nc3ccc(Br)cc3F)c(C(=O)NOCCO)cc21 [binimetinib] | 2% | 4% | -6.37% | – | – | –
10 | CN1CCN(c2ccc(C(=O)Nc3n[nH]c4ccc(Cc5cc(F)cc(F)c5)cc34)c(NC3CCOCC3)c2)CC1 [entrectinib] | 62% | 88% | 67% | – | – | –
11 | COC(=O)N[C@@H](C)CNc1nccc(-c2cn(C(C)C)nc2-c2cc(Cl)cc(NS(C)(=O)=O)c2F)n1 [encorafenib] | 3% | 5.42% | -10% | – | – | –
12 | C[C@H]1Oc2cc(cnc2N)-c2c(nn(C)c2C#N)CN(C)C(=O)c2ccc(F)cc21 [lorlatinib] | 68% | 73% | 19% | – | – | –
13 | CCN1CCN(c2ccc(Nc3cc(N(C)C(=O)Nc4c(Cl)c(OC)cc(OC)c4Cl)ncn3)cc2)CC1 [infigratinib] | 2.8% | -2% | -7.58% | – | – | –
14 | COc1ccc(CN2C3CC2CN(c2ccc(-c4cc(OCC(C)(C)O)cn5ncc(C#N)c45)cn2)C3)cn1 [selpercatinib] | 98% | 79% | 80% | – | – | –
15 | Cn1cnc2c(F)c(Nc3ccc(Br)cc3Cl)c(C(=O)NOCCO)cc21 [selumetinib] | -0.927% | -2.25% | -0.456% | – | – | –
16 | CCc1nc(C(N)=O)c(Nc2ccc(N3CCC(N4CCN(C)CC4)CC3)c(OC)c2)nc1NC1CCOCC1 [gilteritinib] | 87% | 99% | 41% | – | – | –
17 | CCN1C(=O)N(c2c(F)c(OC)cc(OC)c2F)Cc2cnc3[nH]c(CN4CCOCC4)cc3c21 [pemigatinib] | -3% | -4% | 5% | – | – | –
18 | Cn1cc(-c2cc3c(N4CCN(c5ncc([C@@](C)(N)c6ccc(F)cc6)cn5)CC4)ncnn3c2)cn1 [avapritinib] | 65% | 51% | 14% | – | – | –
19 | CNC(=O)c1ccc(-c2cnc3ncc(Cc4ccc5ncccc5c4)n3n2)cc1F [capmatinib] | – | – | – | -1.63% | -3.32% | -4.72%
20 | C[C@H](Nc1ncnc2nc[nH]c12)c1cc2cccc(Cl)c2c(=O)n1-c1ccccc1 [duvelisib] | 10% | -7% | 10% | – | – | –
